Tests used:
Test in all cases: relative viability (nuclei count vs DMSO), 5 days (fraction); higher = more cells survive
201T = test system: 201T
Method in brief: (§1)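 Lung cancer cell lines, seeded in 1536-well plates, were treated the following day by pin tool with a single drug or with five library-drug doses (not always all listed) in √10 steps on top of a fixed anchor-drug dose. Cells were fixed and nuclei stained in one step after 5 days, and nuclei were counted. Relative viability is the nuclei count for treated wells divided by that for vehicle wells, reported as medians of duplicate plates.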

ABC-1 = test system: ABC-1
Method in brief: as §1

BEN = test system: BEN
Method in brief: as §1

CAL-12T = test system: CAL-12T
Method in brief: as §1

COR-L 105 = test system: COR-L 105
Method in brief: as §1

COR-L23 = test system: COR-L23
Method in brief: as §1

EKVX = test system: EKVX
Method in brief: as §1

HARA = test system: HARA
Method in brief: as §1

HCC-366 = test system: HCC-366
Method in brief: as §1

LK-2 = test system: LK-2
Method in brief: as §1

LU99A = test system: LU99A
Method in brief: as §1

NCI-H1437 = test system: NCI-H1437
Method in brief: as §1

NCI-H1666 = test system: NCI-H1666
Method in brief: as §1

NCI-H2009 = test system: NCI-H2009
Method in brief: as §1

NCI-H2023 = test system: NCI-H2023
Method in brief: as §1

NCI-H2170 = test system: NCI-H2170
Method in brief: as §1

NCI-H3122 = test system: NCI-H3122
Method in brief: as §1

NCI-H441 = test system: NCI-H441
Method in brief: as §1

NCI-H661 = test system: NCI-H661
Method in brief: as §1

NCI-H727 = test system: NCI-H727
Method in brief: as §1

NCI-H838 = test system: NCI-H838
Method in brief: as §1

PC-14 = test system: PC-14
Method in brief: as §1

**Q.** Which relative viability (201T; first compound 0.04 µM) does the source give for `Clc1ccc(Nc2nnc(Cc3ccncc3)c3ccccc23)cc1` [Vatalanib] + Cc1nc(NC(=O)N2CCC[C@H]2C(N)=O)sc1-c1ccnc(C(C)(C)C(F)(F)F)c1 [Alpelisib] (partner 2 µM) here?
**A.** 0.984

**Q.** What about the relative viability (201T; first compound 0.1265 µM) of the same compound?
**A.** 1.03

**Q.** And the relative viability (201T; first compound 0.4 µM)?
**A.** 1.04

**Q.** And the relative viability (201T; first compound 1.265 µM)?
**A.** 1.03

**Q.** What about the relative viability (201T; first compound 4 µM) of the same compound?
**A.** 1.07

**Q.** What about the relative viability (ABC-1; first compound 0.04 µM) of the same compound?
**A.** 1

**Q.** What about the relative viability (ABC-1; first compound 0.1265 µM) of the same compound?
**A.** 0.936

**Q.** And the relative viability (ABC-1; first compound 0.4 µM)?
**A.** 1.2

**Q.** What about the relative viability (ABC-1; first compound 1.265 µM) of the same compound?
**A.** 0.853

**Q.** What about the relative viability (ABC-1; first compound 4 µM) of the same compound?
**A.** 0.926

**Q.** What about the relative viability (BEN; first compound 0.04 µM) of the same compound?
**A.** 1.05

**Q.** What about the relative viability (BEN; first compound 0.1265 µM) of the same compound?
**A.** 0.945

**Q.** What about the relative viability (BEN; first compound 0.4 µM) of the same compound?
**A.** 1.09

**Q.** And the relative viability (BEN; first compound 1.265 µM)?
**A.** 1.18

**Q.** And the relative viability (BEN; first compound 4 µM)?
**A.** 1.04

**Q.** What about the relative viability (CAL-12T; first compound 0.04 µM) of the same compound?
**A.** 1.05

**Q.** What about the relative viability (CAL-12T; first compound 0.1265 µM) of the same compound?
**A.** 1.26

**Q.** And the relative viability (CAL-12T; first compound 0.4 µM)?
**A.** 1.44

**Q.** And the relative viability (CAL-12T; first compound 1.265 µM)?
**A.** 0.987

**Q.** And the relative viability (CAL-12T; first compound 4 µM)?
**A.** 1.22

**Q.** What about the relative viability (COR-L 105; first compound 0.04 µM) of the same compound?
**A.** 0.994

**Q.** And the relative viability (COR-L 105; first compound 0.1265 µM)?
**A.** 0.994

**Q.** And the relative viability (COR-L 105; first compound 0.4 µM)?
**A.** 1.15

**Q.** And the relative viability (COR-L 105; first compound 1.265 µM)?
**A.** 1.12

**Q.** What about the relative viability (COR-L 105; first compound 4 µM) of the same compound?
**A.** 1.04

**Q.** What about the relative viability (COR-L23; first compound 0.04 µM) of the same compound?
**A.** 0.769

**Q.** And the relative viability (COR-L23; first compound 0.1265 µM)?
**A.** 0.75

**Q.** And the relative viability (COR-L23; first compound 0.4 µM)?
**A.** 1.07

**Q.** What about the relative viability (COR-L23; first compound 1.265 µM) of the same compound?
**A.** 0.665

**Q.** And the relative viability (COR-L23; first compound 4 µM)?
**A.** 0.739

**Q.** And the relative viability (EKVX; first compound 0.04 µM)?
**A.** 0.939

**Q.** What about the relative viability (EKVX; first compound 0.1265 µM) of the same compound?
**A.** 0.821

**Q.** What about the relative viability (EKVX; first compound 0.4 µM) of the same compound?
**A.** 0.824

**Q.** What about the relative viability (EKVX; first compound 1.265 µM) of the same compound?
**A.** 0.829

**Q.** And the relative viability (EKVX; first compound 4 µM)?
**A.** 0.785

**Q.** What about the relative viability (HARA; first compound 0.04 µM) of the same compound?
**A.** 0.738

**Q.** What about the relative viability (HARA; first compound 0.1265 µM) of the same compound?
**A.** 0.869

**Q.** And the relative viability (HARA; first compound 0.4 µM)?
**A.** 0.761

**Q.** What about the relative viability (HARA; first compound 1.265 µM) of the same compound?
**A.** 0.831

**Q.** What about the relative viability (HARA; first compound 4 µM) of the same compound?
**A.** 0.808

**Q.** And the relative viability (HCC-366; first compound 0.04 µM)?
**A.** 0.388

**Q.** And the relative viability (HCC-366; first compound 0.1265 µM)?
**A.** 0.346

**Q.** And the relative viability (HCC-366; first compound 0.4 µM)?
**A.** 0.461

**Q.** What about the relative viability (HCC-366; first compound 1.265 µM) of the same compound?
**A.** 0.33

**Q.** What about the relative viability (HCC-366; first compound 4 µM) of the same compound?
**A.** 0.396

**Q.** And the relative viability (LK-2; first compound 0.04 µM)?
**A.** 0.951

**Q.** What about the relative viability (LK-2; first compound 0.1265 µM) of the same compound?
**A.** 0.999

**Q.** What about the relative viability (LK-2; first compound 1.265 µM) of the same compound?
**A.** 1.07

**Q.** What about the relative viability (LK-2; first compound 4 µM) of the same compound?
**A.** 1.24

**Q.** What about the relative viability (LU99A; first compound 0.04 µM) of the same compound?
**A.** 0.541

**Q.** What about the relative viability (LU99A; first compound 0.1265 µM) of the same compound?
**A.** 0.514

**Q.** And the relative viability (LU99A; first compound 0.4 µM)?
**A.** 0.531

**Q.** And the relative viability (LU99A; first compound 1.265 µM)?
**A.** 0.503

**Q.** And the relative viability (LU99A; first compound 4 µM)?
**A.** 0.575

**Q.** What about the relative viability (NCI-H1437; first compound 0.04 µM) of the same compound?
**A.** 0.975

**Q.** What about the relative viability (NCI-H1437; first compound 0.1265 µM) of the same compound?
**A.** 1

**Q.** And the relative viability (NCI-H1437; first compound 0.4 µM)?
**A.** 0.997

**Q.** What about the relative viability (NCI-H1437; first compound 1.265 µM) of the same compound?
**A.** 1.04

**Q.** And the relative viability (NCI-H1437; first compound 4 µM)?
**A.** 0.991

**Q.** And the relative viability (NCI-H1666; first compound 0.04 µM)?
**A.** 1.23

**Q.** What about the relative viability (NCI-H1666; first compound 0.1265 µM) of the same compound?
**A.** 0.934

**Q.** And the relative viability (NCI-H1666; first compound 0.4 µM)?
**A.** 0.978

**Q.** What about the relative viability (NCI-H1666; first compound 1.265 µM) of the same compound?
**A.** 0.996

**Q.** And the relative viability (NCI-H1666; first compound 4 µM)?
**A.** 0.941

**Q.** And the relative viability (NCI-H2009; first compound 0.04 µM)?
**A.** 1.14

**Q.** And the relative viability (NCI-H2009; first compound 0.1265 µM)?
**A.** 1.07

**Q.** And the relative viability (NCI-H2009; first compound 0.4 µM)?
**A.** 1.2

**Q.** And the relative viability (NCI-H2009; first compound 1.265 µM)?
**A.** 1.13

**Q.** What about the relative viability (NCI-H2009; first compound 4 µM) of the same compound?
**A.** 1.22

**Q.** And the relative viability (NCI-H2023; first compound 0.04 µM)?
**A.** 0.611

**Q.** What about the relative viability (NCI-H2023; first compound 0.1265 µM) of the same compound?
**A.** 0.537

**Q.** What about the relative viability (NCI-H2023; first compound 0.4 µM) of the same compound?
**A.** 0.657

**Q.** What about the relative viability (NCI-H2023; first compound 1.265 µM) of the same compound?
**A.** 0.492

**Q.** What about the relative viability (NCI-H2023; first compound 4 µM) of the same compound?
**A.** 0.561

**Q.** What about the relative viability (NCI-H2170; first compound 0.04 µM) of the same compound?
**A.** 0.86

**Q.** What about the relative viability (NCI-H2170; first compound 0.1265 µM) of the same compound?
**A.** 0.777

**Q.** And the relative viability (NCI-H2170; first compound 0.4 µM)?
**A.** 0.861

**Q.** And the relative viability (NCI-H2170; first compound 1.265 µM)?
**A.** 0.81

**Q.** What about the relative viability (NCI-H2170; first compound 4 µM) of the same compound?
**A.** 0.811

**Q.** And the relative viability (NCI-H3122; first compound 0.04 µM)?
**A.** 0.779

**Q.** And the relative viability (NCI-H3122; first compound 0.1265 µM)?
**A.** 0.742

**Q.** What about the relative viability (NCI-H3122; first compound 0.4 µM) of the same compound?
**A.** 0.799

**Q.** And the relative viability (NCI-H3122; first compound 1.265 µM)?
**A.** 0.93

**Q.** What about the relative viability (NCI-H3122; first compound 4 µM) of the same compound?
**A.** 0.906

**Q.** What about the relative viability (NCI-H441; first compound 0.04 µM) of the same compound?
**A.** 0.808

**Q.** And the relative viability (NCI-H441; first compound 0.1265 µM)?
**A.** 0.627

**Q.** What about the relative viability (NCI-H441; first compound 0.4 µM) of the same compound?
**A.** 0.733

**Q.** And the relative viability (NCI-H441; first compound 1.265 µM)?
**A.** 0.836

**Q.** What about the relative viability (NCI-H441; first compound 4 µM) of the same compound?
**A.** 0.859

**Q.** And the relative viability (NCI-H661; first compound 0.04 µM)?
**A.** 0.617

**Q.** What about the relative viability (NCI-H661; first compound 0.1265 µM) of the same compound?
**A.** 0.557

**Q.** And the relative viability (NCI-H661; first compound 0.4 µM)?
**A.** 0.717

**Q.** And the relative viability (NCI-H661; first compound 1.265 µM)?
**A.** 0.653

**Q.** And the relative viability (NCI-H661; first compound 4 µM)?
**A.** 0.519

**Q.** What about the relative viability (NCI-H727; first compound 0.04 µM) of the same compound?
**A.** 0.463

**Q.** And the relative viability (NCI-H727; first compound 0.1265 µM)?
**A.** 0.528

**Q.** And the relative viability (NCI-H727; first compound 0.4 µM)?
**A.** 0.666

**Q.** And the relative viability (NCI-H727; first compound 1.265 µM)?
**A.** 0.397

**Q.** What about the relative viability (NCI-H727; first compound 4 µM) of the same compound?
**A.** 0.566

**Q.** What about the relative viability (NCI-H838; first compound 0.04 µM) of the same compound?
**A.** 0.975

**Q.** What about the relative viability (NCI-H838; first compound 0.1265 µM) of the same compound?
**A.** 1.07

**Q.** And the relative viability (NCI-H838; first compound 0.4 µM)?
**A.** 1.06

**Q.** And the relative viability (NCI-H838; first compound 1.265 µM)?
**A.** 0.864

**Q.** And the relative viability (NCI-H838; first compound 4 µM)?
**A.** 0.985

**Q.** What about the relative viability (PC-14; first compound 0.04 µM) of the same compound?
**A.** 0.993

**Q.** What about the relative viability (PC-14; first compound 0.1265 µM) of the same compound?
**A.** 0.9

**Q.** And the relative viability (PC-14; first compound 0.4 µM)?
**A.** 0.97

**Q.** And the relative viability (PC-14; first compound 1.265 µM)?
**A.** 0.904

**Q.** What about the relative viability (PC-14; first compound 4 µM) of the same compound?
**A.** 0.866
